Measured values as given in patent publication US20260284055A1, “FGFR4 INHIBITOR COMPOSITION, PREPARATION METHOD THEREFOR AND PHARMACEUTICAL USE THEREOF” (Abbisko Therapeutics Co., Ltd., priority 2023, published 2026).

Key:
Type in all cases: physicochemical
[1] = Micromeritic properties of powders (angle of repose, bulk density, tap density, Carr index, flowability)
[2] = Content determination of active pharmaceutical ingredient (HPLC)
Method: Chromatographic conditions: Octadecylsilane-bonded silica gel was used as the filler (Waters XBridge® C18, 4.6×150 mm, […] chromatographic column or chromatographic column with equivalent performance); a 0.1 vol % trifluoroacetic acid solution was used as mobile phase A, and a solution of 0.1 vol % trifluoroacetic acid in acetonitrile was used as mobile phase B; isocratic elution was performed with mobile phase A-mobile phase B (70:30); the detection wavelength was 232 nm, the flow rate was 1.0 mL/min, the column temperature was 40° C., the sample injection volume was 10 μL, and the run time was 10 min.
(§1) The inventors first conducted a study on the physicochemical properties of the active pharmaceutical ingredient. The specific procedures were as follows: The active pharmaceutical ingredient and different auxiliary materials were mixed at different ratios and then placed under different conditions; the samples were taken out at different time points and then observed for appearance, hygroscopic weight gain, active pharmaceutical ingredient content, related substance content, etc.

[3] = Related substances (HPLC), compatibility and stability
Method: Gradient elution was performed according to the table below, with a run time of 50.0 min and a post-run time of 5 min.
as §1

[4] = Hygroscopic weight gain (gravimetric method)
Method: Gravimetric method: The initial weight of a sample was measured, recorded as W1, and then the weight of the sample after being placed under high-humidity conditions for a certain period of time was measured, recorded as W2; the percentage of hygroscopic weight gain was calculated based on the weight difference, using the following calculation formula: (W2−W1)/W1*100%.
as §1

[5] = Particle size distribution of active pharmaceutical ingredient (Malvern Mastersizer 2000)
Method: The active pharmaceutical ingredient was mechanically milled, and samples were taken at different milling time points. The particle size distribution was determined using a Malvern Mastersizer 2000 laser particle size analyzer, and the particle morphology was observed using a polarizing microscope. [table]

[6] = API of the capsule batch of the same table line

Compound: C=CC(=O)N[C@H]1CCOC[C@H]1Nc1ncc2cc(-c3c(F)c(OC)cc(OC)c3F)nc(N3CC(C)(OC)C3)c2n1.Cc1ccc(S(=O)(=O)O)cc1.O [Active pharmaceutical ingredient, p-toluenesulfonate monohydrate of the compound of formula (I)]
- Angle of repose [1]: 44.66 °
- Bulk density [1]: 0.447 g/mL
- Carr index [1]: 40%
- Tap density [1]: 0.740 g/mL
- Content ([2]; 0 d): 100.5%
- Content ([2]; 25° C./92.5% RH, 30 d): 99.5%
- Content ([2]; 40° C./75% RH, 30 d): 98.6%
- Content ([2]; 60° C., 30 d): 102.5%
- Content ([2]; Light exposure, 10 d): 96.5%
- Related substance (%) ([3]; 0 d): 0.66%
- Related substance (%) ([3]; 25° C./92.5% RH (open), 30 d): 0.98%
- Related substance (%) ([3]; 25° C./92.5% RH (open), 30 d, listed as active pharmaceutical ingredient): slight increase in impurities
- Related substance (%) ([3]; 40° C./75% RH (open), 30 d): 0.58%
- Related substance (%) ([3]; 40° C./75% RH (open), 30 d, listed as active pharmaceutical ingredient): remained stable
- Related substance (%) ([3]; 60° C. (open), 30 d): 0.66%
- Related substance (%) ([3]; 60° C. (open), 30 d, listed as active pharmaceutical ingredient): remained stable
- RRT = 0.27 related substance content ([3]; API): <0.05%
- RRT = 0.44 related substance content ([3]; API): 0.09%
- RRT = 0.56 related substance content ([3]; API): <0.05%
- RRT = 0.71 related substance content ([3]; API): 0.05%
- RRT = 0.74 related substance content ([3]; API): 0.06%
- RRT = 0.88 related substance content ([3]; API): 0.06%
- RRT = 0.97 related substance content ([3]; API): <0.05%
- RRT = 1.05 related substance content ([3]; API): <0.05%
- RRT = 1.09 related substance content ([3]; API): <0.05%
- RRT = 1.27 related substance content ([3]; API): 0.20%
- RRT = 2.00 related substance content ([3]; API): 0.14%
- Related substance ([3]; API): 0.60%
- API impurities: Single impurity [3, 6]: Single impurity < 0.05%
- API impurities: Total impurities [3, 6]: Total impurities < 0.05%
- Related substance (%) ([3]; Light exposure (open), 10 d): 0.64%
- Related substance (%) ([3]; Light exposure (open), 10 d, listed as active pharmaceutical ingredient): remained stable
- single impurity (RRT=0.44) ([3]; after 10 days of exposure to light): 0.07%
- single impurity (RRT=0.44) ([3]; before exposure to light): < 0.05%
- Percentage change in hygroscopic weight gain ([4]; 25° C./92.5% RH, 10 d): 0.6%
- Percentage change in hygroscopic weight gain ([4]; 25° C./92.5% RH, 30 d): 0.3%
- Percentage change in hygroscopic weight gain ([4]; 40° C./75% RH, 10 d): 0.2%
- Percentage change in hygroscopic weight gain ([4]; 40° C./75% RH, 30 d): −0.3%
- Hygroscopicity ([4]; API alone): not highly hygroscopic

Compound: C=CC(=O)N[C@H]1CCOC[C@H]1Nc1ncc2cc(-c3c(F)c(OC)cc(OC)c3F)nc(N3CC(C)(OC)C3)c2n1 [Test 0]
- Particle size distribution D50 [5]: 155.607 μm
- Particle size distribution D90 [5]: 333.563 μm

Compound: C=CC(=O)N[C@H]1CCOC[C@H]1Nc1ncc2cc(-c3c(F)c(OC)cc(OC)c3F)nc(N3CC(C)(OC)C3)c2n1 [Test 1]
- Particle size distribution D10 [5]: 2.168 μm
- Particle size distribution D50 [5]: 14.763 μm
- Particle size distribution D90 [5]: D90 = 125.775 μm

Compound: C=CC(=O)N[C@H]1CCOC[C@H]1Nc1ncc2cc(-c3c(F)c(OC)cc(OC)c3F)nc(N3CC(C)(OC)C3)c2n1 [Test 2]
- Particle size distribution D10 [5]: 1.509 μm
- Particle size distribution D50 [5]: 9.682 μm
- Particle size distribution D90 [5]: D90 = 63.594 μm

Compound: C=CC(=O)N[C@H]1CCOC[C@H]1Nc1ncc2cc(-c3c(F)c(OC)cc(OC)c3F)nc(N3CC(C)(OC)C3)c2n1 [Test 3]
- Particle size distribution D10 [5]: 1.298 μm
- Particle size distribution D50 [5]: 8.279 μm
- Particle size distribution D90 [5]: D90 = 43.137 μm
